Measured values: PubChem BioAssay AID248 (DTP/NCI, 2004)
“And” between values parts separate entries of the source, which are not always exact repeats. Equal entries are not always repeated. Toxic doses and inconclusive results are not listed. Cut-off read from the data, not from the text of the source: active = T/C of 150% or more; inactive = T/C below 125%.

Tested on: L1210 leukemia ip in BDF1 mice, survival T/C
Experiment: NCI In Vivo Anticancer Drug Screen. Data for tumor model L1210 Leukemia (intraperitoneal) in B6D2F1 (BDF1) mice
Details: endpoint: mean survival time, higher = longer survival
Procedure, shortened: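 Mice bearing the transplanted tumor received compound or vehicle. Survival of the treated group was divided by that of the vehicle-treated control group to give the ratio.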

[1] = dose: 100.0 mg/kg/injection, schedule: Q01DX001 (ip), vehicle: Klucel (hydroxypropylcellulose) (HPC)
[2] = dose: 200.0 mg/kg/injection, schedule: Q01DX001 (ip), vehicle: Klucel (hydroxypropylcellulose) (HPC)
[3] = dose: 400.0 mg/kg/injection, schedule: Q01DX001 (ip), vehicle: Klucel (hydroxypropylcellulose) (HPC)
[4] = dose: 100.0 mg/kg/injection, schedule: Q04DX002 (ip), vehicle: Klucel (hydroxypropylcellulose) (HPC)
[5] = dose: 200.0 mg/kg/injection, schedule: Q04DX002 (ip), vehicle: Klucel (hydroxypropylcellulose) (HPC)
[6] = dose: 400.0 mg/kg/injection, schedule: Q04DX002 (ip), vehicle: Klucel (hydroxypropylcellulose) (HPC)
[7] = dose: 100.0 mg/kg/injection, schedule: Q04DX003 (ip), vehicle: Klucel (hydroxypropylcellulose) (HPC)
[8] = dose: 200.0 mg/kg/injection, schedule: Q04DX003 (ip), vehicle: Klucel (hydroxypropylcellulose) (HPC)
[9] = dose: 100.0 mg/kg/injection, schedule: Q01DX009 (ip), vehicle: Klucel (hydroxypropylcellulose) (HPC)
[10] = dose: 200.0 mg/kg/injection, schedule: Q01DX009 (ip), vehicle: Klucel (hydroxypropylcellulose) (HPC)
[11] = dose: 400.0 mg/kg/injection, schedule: Q04DX003 (ip), vehicle: Klucel (hydroxypropylcellulose) (HPC)
[12] = dose: 400.0 mg/kg/injection, schedule: Q01DX009 (ip), vehicle: Klucel (hydroxypropylcellulose) (HPC)

Measured: T/C

CCOC(=O)C1CC=CCC1C(=O)OCC (stereo not drawn)
inactive: dose: 50.0 mg/kg/injection, schedule: Q01DX009 (ip), vehicle: Klucel (hydroxypropylcellulose) (HPC) 105 % of control | dose: 75.0 mg/kg/injection, schedule: Q01DX009 (ip), vehicle: Klucel (hydroxypropylcellulose) (HPC) 108 % of control | dose: 150.0 mg/kg/injection, schedule: Q01DX009 (ip), vehicle: Klucel (hydroxypropylcellulose) (HPC) 112 % of control

O=NC1C(Cl)C2CC1C1COCC21 (stereo not drawn)
inactive: [1] 97 % of control | [2] 90 % of control | [3] 89 % of control

CCCCC(CC)COC(=O)CCC(CCC(=O)OCC(CC)CCCC)C(=O)OCC(CC)CCCC (stereo not drawn)
inactive: dose: 100.0 mg/kg/injection, schedule: Q04DX003 (ip), vehicle: saline sonified 98 % of control | dose: 200.0 mg/kg/injection, schedule: Q04DX003 (ip), vehicle: saline sonified 104 % of control | dose: 400.0 mg/kg/injection, schedule: Q04DX003 (ip), vehicle: saline sonified 96 % of control

O=C1c2ccccc2C2(Br)C(=O)c3ccccc3C12Br (stereo not drawn)
inactive: [4] 104 % of control | [5] 101 % of control | [6] 93 % of control

Nc1nc2ncc(CCNc3ccc(C(=O)NC(CCC(=O)O)C(=O)O)cc3)nc2c(=O)[nH]1 (stereo not drawn)
inactive: dose: 18.75 mg/kg/injection, schedule: Q01DX001 (ip), vehicle: other 96 % of control | dose: 18.75 mg/kg/injection, schedule: Q01DX Z (ip), vehicle: other 103 % of control | dose: 37.5 mg/kg/injection, schedule: Q01DX001 (ip), vehicle: other 97 % of control | dose: 37.5 mg/kg/injection, schedule: Q01DX Z (ip), vehicle: other 102 % of control | dose: 75.0 mg/kg/injection, schedule: Q01DX001 (ip), vehicle: other 104 % of control | dose: 75.0 mg/kg/injection, schedule: Q01DX Z (ip), vehicle: other 112 % of control | dose: 150.0 mg/kg/injection, schedule: Q01DX001 (ip), vehicle: other 119 % of control

C=C(Cl)CNC(=O)c1ccc([N+](=O)[O-])cc1
inactive: [7] 98 % of control | [8] 104 % of control

Cc1sc(=S)n(CC(=O)O)c1C
inactive: dose: 100.0 mg/kg/injection, schedule: Q01DX009 (ip), vehicle: saline with Tween-80 93 % of control | dose: 200.0 mg/kg/injection, schedule: Q01DX009 (ip), vehicle: saline with Tween-80 93 % of control | dose: 400.0 mg/kg/injection, schedule: Q01DX009 (ip), vehicle: saline with Tween-80 92 % of control

CC(=O)c1cccc(OC(=O)Nc2ccc(C)cc2)c1
inactive: dose: 100.0 mg/kg/injection, schedule: Q01DX001 (ip), vehicle: gum acacia 89 % of control | dose: 100.0 mg/kg/injection, schedule: Q01DX009 (ip), vehicle: gum acacia 95 % of control and 88 % of control | dose: 100.0 mg/kg/injection, schedule: Q04DX003 (ip), vehicle: gum acacia 98 % of control and 100 % of control | dose: 200.0 mg/kg/injection, schedule: Q01DX001 (ip), vehicle: gum acacia 100 % of control | dose: 200.0 mg/kg/injection, schedule: Q01DX009 (ip), vehicle: gum acacia 98 % of control and 105 % of control | dose: 200.0 mg/kg/injection, schedule: Q04DX003 (ip), vehicle: gum acacia 93 % of control and 90 % of control | dose: 400.0 mg/kg/injection, schedule: Q01DX001 (ip), vehicle: gum acacia 90 % of control | dose: 400.0 mg/kg/injection, schedule: Q01DX009 (ip), vehicle: gum acacia 98 % of control and 109 % of control | dose: 400.0 mg/kg/injection, schedule: Q04DX003 (ip), vehicle: gum acacia 97 % of control and 103 % of control

CN=C(NCCc1ccccc1)c1ccc(NC(=O)c2ccc(C(=O)Nc3ccc(C(=NC)NCCc4ccccc4)cc3)cc2)cc1
inactive: dose: 3.75 mg/kg/injection, schedule: Q01DX Z (ip), vehicle: saline 102 % of control | dose: 7.5 mg/kg/injection, schedule: Q01DX Z (ip), vehicle: saline 105 % of control

O=C(/C=C\c1ccccc1)/C=C/c1ccccc1
inactive: [9] 90 % of control | dose: 100.0 mg/kg/injection, schedule: Q01DX009 (sc), vehicle: olive oil, sesame oil, peanut oil 113 % of control | [7] 95 % of control | [10] 95 % of control | dose: 200.0 mg/kg/injection, schedule: Q01DX009 (sc), vehicle: olive oil, sesame oil, peanut oil 98 % of control | [8] 98 % of control | dose: 400.0 mg/kg/injection, schedule: Q01DX009 (sc), vehicle: olive oil, sesame oil, peanut oil 102 % of control | [11] 98 % of control

NCCc1ccc(S(=O)(=O)O)cc1[N+](=O)[O-]
inactive: [9] 96 % of control | [7] 98 % of control | [10] 89 % of control | [8] 94 % of control | [11] 98 % of control

CCOc1ccccc1NC(=O)c1ccccc1Cl
inactive: [9] 102 % of control | [10] 108 % of control | [12] 93 % of control

CCCCCCCCCCOc1ccc(OCCCCCCCCC)cc1
inactive: dose: 100.0 mg/kg/injection, schedule: Q04DX003 (ip), vehicle: saline with Tween-80 94 % of control | dose: 200.0 mg/kg/injection, schedule: Q04DX003 (ip), vehicle: saline with Tween-80 100 % of control | dose: 400.0 mg/kg/injection, schedule: Q04DX003 (ip), vehicle: saline with Tween-80 87 % of control

CCOC(=O)Nc1cc([N+](=O)[O-])ccc1OC
inactive: [1] 105 % of control | [9] 105 % of control | [4] 96 % of control and 104 % of control | [7] 101 % of control | [2] 100 % of control | [10] 108 % of control | [5] 96 % of control and 97 % of control | [8] 98 % of control | [3] 101 % of control | [12] 102 % of control | [6] 96 % of control and 103 % of control | [11] 101 % of control

CCCCCN1CCCC(OC(=O)N(C)C)C1 (stereo not drawn)
inactive: dose: 25.0 mg/kg/injection, schedule: Q04DX002 (ip), vehicle: saline 106 % of control | dose: 50.0 mg/kg/injection, schedule: Q04DX002 (ip), vehicle: saline 103 % of control | dose: 100.0 mg/kg/injection, schedule: Q04DX002 (ip), vehicle: saline 86 % of control

Oc1ccc(C2CCc3ccccc32)cc1 (stereo not drawn)
inactive: [9] 100 % of control | [7] 95 % of control | [10] 104 % of control | [8] 100 % of control | [12] 95 % of control | [11] 93 % of control

CC(=O)OC1CCC2C3CCC4=CC(=O)CCC4(C)C3=CCC12C (stereo not drawn)
inactive: dose: 100.0 mg/kg/injection, schedule: Q01DX001 (ip), vehicle: saline with Tween-80 95 % of control | dose: 200.0 mg/kg/injection, schedule: Q01DX001 (ip), vehicle: saline with Tween-80 95 % of control | dose: 400.0 mg/kg/injection, schedule: Q01DX001 (ip), vehicle: saline with Tween-80 92 % of control

COC(=O)C1CCC2(C)CCC(=O)C(C)C2C1 (stereo not drawn)
inactive: [1] 101 % of control | [7] 104 % of control | [2] 104 % of control | [8] 106 % of control | [3] 92 % of control | [11] 104 % of control

COc1cc(C(=O)O)ccc1OCCNS(C)(=O)=O
inactive: [1] 96 % of control | [7] 105 % of control | [2] 102 % of control | [8] 96 % of control | [3] 100 % of control | [11] 94 % of control

COc1ccc(OC)c(CCc2cc(OC)ccc2OC)c1
inactive: dose: 12.5 mg/kg/injection, schedule: Q01DX009 (ip), vehicle: other 93 % of control | dose: 25.0 mg/kg/injection, schedule: Q01DX009 (ip), vehicle: other 96 % of control | dose: 50.0 mg/kg/injection, schedule: Q01DX009 (ip), vehicle: other 98 % of control
